≈ marks a conversion by molar mass, not a printed value.

For orientation: MIC means the smallest concentration in the dilution series that meets the test's criterion for growth inhibition. A higher MIC goes with weaker potency.

The test system of the assay is S. pneumoniae ATCC 49619. Description: Minimal inhibitory concentration (MIC) by microdilution method (CLSI M7-A7). Format: cell-based, Streptococcus pneumoniae. The settings on record: for MIC: Streptococcus pneumoniae, ATCC49619, cation-adjusted Mueller-Hinton Broth supplemented with 3% (v/v) lysed horse blood. Here is the method: Minimal inhibitory concentrations (MICs; mg/l) were determined in cation-adjusted Mueller-Hinton Broth (supplemented with 3% (v/v) lysed horse blood for testing Streptococcus pneumoniae) by a microdilution method following the description given in “Methods for Dilution Antimicrobial Susceptibility Tests for Bacteria that Grow Aerobically”, Approved standard, 7th ed., Clinical and Laboratory Standards Institute (CLSI) Document M7-A7, Wayne, Pa., USA, 2006.

Compound `CCNC(=O)Nc1cc2c(F)c(-c3ccc(S(N)(=O)=O)cc3)cc(C)c2cn1` [Example 144, 4-[3-(3-ethyl-ureido)-5-fluoro-8-methyl-isoquinolin-6-yl]-benzenesulfonamide] yielded an MIC of 0.5 µg/mL (≈ 1.24 µM).
On to `CCNC(=O)Nc1cc2c(CNC)ccc(Nc3cccc(OC)n3)c2cn1` [Example 271, 1-ethyl-3-{8-[(6-methoxy-pyridin)-2-ylamino]-5-[(methylamino)methyl]-isoquinolin-3-yl}-urea], for which, under “cation-adjusted Mueller-Hinton Broth supplemented with 3% (v/v) lysed horse blood”, the “MIC for S. pneumoniae ATCC 49619” value came to 4 µg/mL.
`CCNC(=O)Nc1cc2cccc(Cn3cc(CO)cn3)c2cn1` [Example 292, 1-ethyl-3-[8-(4-hydroxymethyl-pyrazol-1-ylmethyl)-isoquinolin-3-yl]-urea]: the MIC amounted to 8 µg/mL (≈ 24.6 µM).
Take `CCNC(=O)Nc1cc2c(-c3ccc(CO)cc3)ccc(Nc3cccc(C(=O)NC)c3)c2cn1` [Example 250, 3-[3-(3-ethyl-ureido)-5-(4-hydroxymethyl-phenyl)-isoquinolin-8-ylamino]-N-methyl-benzamide]: it took 1 µg/mL (≈ 2.13 µM) to inhibit growth (MIC).
Compound `CCNC(=O)Nc1cc2c(-c3cnn(C)c3)ccc(C)c2cn1.Cl` [Example 284, 1-ethyl-3-[8-methyl-5-(1-methyl-1H-pyrazol-4-yl)-isoquinolin-3-yl]-urea hydrochloride] yielded an MIC of 4 µg/mL.
As to `CCNC(=O)Nc1cc2cccc(COc3ccccn3)c2cn1.Cl` [Example 261, 1-ethyl-3-[8-(pyridin-2-yloxymethyl)-isoquinolin-3-yl]-urea hydrochloride], the MIC was 8 µg/mL.
The compound `CCNC(=O)Nc1cc2cccc(Nc3cccc(OC)n3)c2cn1` [Example 178, 1-ethyl-3-[8-(6-methoxy-pyridin-2-ylamino)-isoquinolin-3-yl]-urea] yielded an MIC of 2 µg/mL (≈ 5.93 µM).
The compound `CCNC(=O)Nc1cc2c(-c3ccnc(N)c3)ccc(Nc3cccnc3)c2cn1` [Example 233, 1-[5-(2-amino-pyridin-4-yl)-8-(pyridin-3-ylamino)-isoquinolin-3-yl]-3-ethyl-urea] registered an MIC of 0.5 µg/mL (≈ 1.25 µM).
In the case of `CCNC(=O)Nc1cc2cc(NCc3ccc4ccn(C)c4c3)cc(C)c2cn1.Cl` [Example 135, 1-ethyl-3-{8-methyl-6-[((1-methyl-1H-indol-6-yl)methyl)-amino]-isoquinolin-3-yl}-urea hydrochloride], the MIC was determined as 16 µg/mL.
As to `CCNC(=O)Nc1cc2cc(-c3cccc(O)c3)cc(C)c2cn1` [Example 20, 1-ethyl-3-[6-(3-hydroxy-phenyl)-8-methyl-isoquinolin-3-yl]-urea], the MIC turned out to be 0.5 µg/mL (≈ 1.56 µM).
Still for that read-out and setting: then `CCNC(=O)Nc1cc2c(-c3ccncc3)ccc(OC)c2cn1` [Example 125, 1-ethyl-3-(8-methoxy-5-pyridin-4-yl-isoquinolin-3-yl)-urea], with 4 µg/mL (≈ 12.4 µM); and `CCNC(=O)Nc1cc2cccc(Nc3cccc(CC(=O)N(C)C)c3)c2cn1.Cl` [Example 211, 2-{3-[3-(3-ethyl-ureido)-isoquinolin-8-ylamino]phenyl}-N,N-dimethyl-acetamide hydrochloride], with 4 µg/mL.
With `CCNC(=O)Nc1cc2cccc(Nc3ccccc3)c2cn1` [Example 169, 1-ethyl-3-(8-phenylamino-isoquinolin-3-yl)-urea], the MIC amounted to 1 µg/mL (≈ 3.26 µM).
Same read-out and setting: for `CCNC(=O)Nc1cc2cc(-c3ccccc3C)cc(C)c2cn1` [Example 105, 1-ethyl-3-(8-methyl-6-o-tolyl-isoquinolin-3-yl)-urea] the value was 8 µg/mL (≈ 25 µM); for `CCNC(=O)Nc1cc2c(F)ccc(NC(=O)c3ccccc3)c2cn1` [Example 51, N-[3-(3-ethyl-ureido)-5-fluoro-isoquinolin-8-yl]-benzamide], 1 µg/mL (≈ 2.84 µM); for `CCNC(=O)Nc1cc2cccc(Nc3ccc(C(=O)OC)cc3)c2cn1` [Example 179, 4-[3-(3-ethyl-ureido)-isoquinolin-8-ylamino]-benzoic acid methyl ester], 4 µg/mL (≈ 11 µM).
On the same count and under the same terms, for `CCNC(=O)Nc1cc2cccc(Nc3ccc(C(=O)O)c(C)c3)c2cn1` [Example 267, 4-[3-(3-ethyl-ureido)-isoquinolin-8-ylamino]-2-methyl-benzoic acid] the value was 2 µg/mL (≈ 5.49 µM).
Regarding `CCNC(=O)Nc1cc2cccc(Nc3cncnc3)c2cn1` [Example 149, 1-ethyl-3-[8-(pyrimidin-5-ylamino)-isoquinolin-3-yl]-urea], it took 2 µg/mL (≈ 6.49 µM) to inhibit growth (MIC).
`CCNC(=O)Nc1cc2cc(NCc3cccc(-n4cncn4)c3)cc(C)c2cn1` [Example 187, 1-ethyl-3-[8-methyl-6-(3-[1,2,4]-triazol-1-yl-benzylamino)-isoquinolin-3-yl]-urea] returned an MIC of 8 µg/mL (≈ 19.9 µM).
Compound `CCNC(=O)Nc1cc2c(-c3cccnc3F)ccc(C)c2cn1` [Example 66, 1-ethyl-3-[5-(2-fluoro-pyridin-3-yl)-8-methyl-isoquinolin-3-yl]-urea] gave an MIC of 4 µg/mL (≈ 12.3 µM).
For `CCNC(=O)Nc1cc2c(-c3ccc(CO)cc3)ccc(Nc3cccc(C(=O)O)c3)c2cn1` [Example 249, 3-[3-(3-ethyl-ureido)-5-(4-hydroxymethyl-phenyl)-isoquinolin-8-ylamino]-benzoic acid], inhibition of growth (MIC) required 0.5 µg/mL (≈ 1.1 µM).
`CCNC(=O)Nc1cc2c(-c3cccc(CN)c3)ccc(C)c2cn1` [Example 11, 1-[5-(3-(aminomethyl)-phenyl)-8-methyl-isoquinolin-3-yl]-3-ethyl-urea]: the lowest concentration to inhibit growth (MIC) was 2 µg/mL (≈ 5.98 µM).
Same read-out and setting: for `CCNC(=O)Nc1cc2cc(-c3cccc(C(=O)OCC)c3)cc(C)c2cn1` [Example 84, 3-[3-(3-ethyl-ureido)-8-methyl-isoquinolin-6-yl]-benzoic acid ethyl ester] the value was 0.5 µg/mL (≈ 1.32 µM).
Turning to `CCNC(=O)Nc1cc2cccc(Nc3ccncn3)c2cn1` [Example 151, 1-ethyl-3-[8-(pyrimidin-4-ylamino)-isoquinolin-3-yl]-urea], inhibition of growth (MIC) required 4 µg/mL (≈ 13 µM).
As for `CCNC(=O)Nc1cc2c(F)c(-c3cccnc3)cc(-c3cccnc3)c2cn1` [Example 53, 1-ethyl-3-(5-fluoro-6,8-di-pyridin-3-yl-isoquinolin-3-yl)-urea], the MIC worked out at 8 µg/mL (≈ 20.6 µM).
With `CCNC(=O)Nc1cc2cc(-c3cccc(NC(C)=O)c3)cc(Nc3cccnc3)c2cn1` [Example 236, N-{3-[3-(3-ethyl-ureido)-8-(pyridin-3-ylamino)-isoquinolin-6-yl]-phenyl}-acetamide], inhibition of growth (MIC) required 0.5 µg/mL (≈ 1.14 µM).
`CCNC(=O)Nc1cc2c(Br)ccc(C)c2cn1` [Example 1, 1-(5-bromo-8-methyl-isoquinolin-3-yl)-3-ethyl-urea] yielded an MIC of 1 µg/mL (≈ 3.24 µM).
On to `CCNC(=O)Nc1cc2c(F)ccc(Cc3ccccc3)c2cn1` [Example 46, 1-(8-benzyl-5-fluoro-isoquinolin-3-yl)-3-ethyl-urea], for which it took 1 µg/mL (≈ 3.09 µM) to inhibit growth (MIC).
`CCNC(=O)Nc1cc2c(-c3ccncc3)ccc(Nc3ccc(C)nc3)c2cn1` [Example 218, 1-ethyl-3-[8-(6-methyl-pyridin-3-ylamino)-5-pyridin-4-yl-isoquinolin-3-yl]-urea] came in with an MIC of 1 µg/mL (≈ 2.51 µM).
On the same count and under the same terms, then `CCNC(=O)Nc1cc2cccc(Nc3ccc(C(=O)N(C)C)cc3)c2cn1.Cl` [Example 203, 4-[3-(3-ethyl-ureido)-isoquinolin-8-ylamino]-N,N-dimethyl-benzamide hydrochloride], with 2 µg/mL; and `CCNC(=O)Nc1cc2cc(-c3cccc(NC(C)=O)c3)cc(C)c2cn1` [Example 37, N-{3-[3-(3-ethyl-ureido)-8-methyl-isoquinolin-6-yl]-phenyl}-acetamide], with 1 µg/mL (≈ 2.76 µM).
On to `CCNC(=O)Nc1cc2c(-c3cccnn3)ccc(C)c2cn1.Cl` [Example 282, 1-ethyl-3-(8-methyl-5-pyridazin-3-yl-isoquinolin-3-yl)-urea hydrochloride], for which 8 µg/mL was the least that counted as inhibitory (MIC).
Same read-out and setting: then `CCNC(=O)Nc1cc2cccc(Nc3cccc(C(=O)N(C)C)c3)c2cn1.Cl` [Example 199, 3-[3-(3-ethyl-ureido)-isoquinolin-8-ylamino]-N,N-dimethyl-benzamide hydrochloride], with 1 µg/mL.
The compound `CCNC(=O)Nc1cc2cccc(Nc3cccc(CC(=O)NCc4ccccc4)c3)c2cn1.Cl` [Example 210, N-benzyl-2-{3-[3-(3-ethyl-ureido)-isoquinolin-8-ylamino]phenyl}-acetamide hydrochloride] had an MIC of 8 µg/mL.
On the same count and under the same terms, for `CCNC(=O)Nc1cc2c(-c3cncc(F)c3)ccc(C)c2cn1` [Example 9, 1-ethyl-3-[5-(5-fluoro-pyridin-3-yl)-8-methyl-isoquinolin-3-yl]-urea] the value was 2 µg/mL (≈ 6.17 µM); for `CCNC(=O)Nc1cc2c(-c3ccc(C(=O)O)cc3)cccc2cn1` [Example 124, 4-[3-(3-ethyl-ureido)-isoquinolin-5-yl]-benzoic acid], 4 µg/mL (≈ 11.9 µM); for `CCNC(=O)Nc1cc2cccc(Nc3cccc(OC)c3)c2cn1` [Example 168, 1-ethyl-3-[8-(3-methoxy-phenylamino)-isoquinolin-3-yl]-urea], 0.5 µg/mL (≈ 1.49 µM).
Same read-out and setting: for `CCNC(=O)Nc1cc2c(-c3cncc(C)c3)ccc(C)c2cn1` [Example 10, 1-ethyl-3-[8-methyl-5-(5-methyl-pyridin-3-yl)-isoquinolin-3-yl]-urea] the value was 2 µg/mL (≈ 6.24 µM); for `CCNC(=O)Nc1cc2cc(NC(=O)c3ccncc3)cc(C)c2cn1` [Example 116, N-[3-(3-ethyl-ureido)-8-methyl-isoquinolin-6-yl]-isonicotinamide], 0.125 µg/mL (≈ 0.358 µM); for `CCNC(=O)Nc1cc2cc(NCc3cccc(OC)c3)cc(C)c2cn1.Cl` [Example 197, 1-ethyl-3-[6-(3-methoxy-benzylamino)-8-methyl-isoquinolin-3-yl]-urea hydrochloride], 8 µg/mL.
`CCNC(=O)Nc1cc2c(-c3ccncn3)ccc(Cl)c2cn1` [Example 286, 1-(8-chloro-5-pyrimidin-4-yl-isoquinolin-3-yl)-3-ethyl-urea] gave an MIC of 8 µg/mL (≈ 24.4 µM).
The compound `CCNC(=O)Nc1cc2cc(-c3ccc4ccccc4c3)cc(C)c2cn1` [Example 79, 1-ethyl-3-(8-methyl-6-naphthalen-2-yl-isoquinolin-3-yl)-urea] had an MIC of 1 µg/mL (≈ 2.81 µM).

The values above are taken from US20130096119A1, “Isoquinolin-3-Ylurea Derivatives” (priority 2010, published 2013).
